Test results from patent US9693556B2, “Herbicidal pyridazinone derivatives” (SYNGENTA LIMITED, priority 2011, dated 2017).

Columns and labels:
Format in all cases: in vivo
[1] = tested on: Alopecurus myosuroides (ALOMY); assay: Pre-emergence herbicidal glasshouse test on Alopecurus myosuroides; details: for PRE Application ALOMY herbicidal damage (five point scale): pre-emergence, 1000 g/h, evaluated after 13 days
Protocol: (§1) Seeds of a variety of test species are sown in standard soil in pots (Alopecurus myosuroides (ALOMY), Setaria faberi (SETFA), Echinochloa crus-galli (ECHCG), Solanum nigrum (SOLNI), Amaranthus retoflexus (AMARE), Ipomoea hederacea (IPOHE)). After cultivation for one day (pre-emergence) or after 8 days cultivation (post-emergence) under controlled conditions in a glasshouse (at 24/16° C., day/night; 14 hours light; 65% humidity), the plants are sprayed with an aqueous spray solution derived from the formulation of the technical active ingredient in acetone/water (50:50) solution containing 0.5% Tween 20 (polyoxyethelyene sorbitan monolaurate, CAS RN 9005-64-5). Compounds are applied at 1000 g/h. The test plants are then grown in a glasshouse under controlled conditions in a glasshouse (at 24/16° C., day/night; 14 hours light; 65% humidity) and watered twice daily. After 13 days for pre and post-emergence, the test is evaluated for the percentage herbicidal damage caused to the plant. The biological activities are shown in the following table on a five point scale (5=80-100% damage; 4=60-79% damage; 3=40-59% damage; 2=20-39% damage; 1=0-19% damage).

Setaria faberi (SETFA) [2] = assay: Pre-emergence herbicidal glasshouse test on Setaria faberi; details: for PRE Application SETFA herbicidal damage (five point scale): pre-emergence, 1000 g/h, evaluated after 13 days
Protocol: as §1

[3] = tested on: Echinochloa crus-galli (ECHCG); assay: Pre-emergence herbicidal glasshouse test on Echinochloa crus-galli; details: pre-emergence; 1000 g/h; evaluated after 13 days
Protocol: as §1

Solanum nigrum (SOLNI) [4] = assay: Pre-emergence herbicidal glasshouse test on Solanum nigrum; details: for PRE Application SOLNI herbicidal damage (five point scale): pre-emergence, 1000 g/h, evaluated after 13 days
Protocol: as §1

[5] = tested on: Amaranthus retoflexus (AMARE); assay: Pre-emergence herbicidal glasshouse test on Amaranthus retoflexus; details: for PRE Application AMARE herbicidal damage (five point scale): pre-emergence, 1000 g/h, evaluated after 13 days
Protocol: as §1

[6] = tested on: Alopecurus myosuroides (ALOMY); assay: Post-emergence herbicidal glasshouse test on Alopecurus myosuroides; details: for POST Application ALOMY herbicidal damage (five point scale): post-emergence, 1000 g/h, evaluated after 13 days
Protocol: as §1

Setaria faberi (SETFA) [7] = assay: Post-emergence herbicidal glasshouse test on Setaria faberi; details: for POST Application SETFA herbicidal damage (five point scale): post-emergence, 1000 g/h, evaluated after 13 days
Protocol: as §1

[8] = tested on: Echinochloa crus-galli (ECHCG); assay: Post-emergence herbicidal glasshouse test on Echinochloa crus-galli; details: for POST Application ECHCG herbicidal damage (five point scale): post-emergence, 1000 g/h, evaluated after 13 days
Protocol: as §1

Solanum nigrum (SOLNI) [9] = assay: Post-emergence herbicidal glasshouse test on Solanum nigrum; details: for POST Application SOLNI herbicidal damage (five point scale): post-emergence, 1000 g/h, evaluated after 13 days
Protocol: as §1

[10] = tested on: Amaranthus retoflexus (AMARE); assay: Post-emergence herbicidal glasshouse test on Amaranthus retoflexus; details: for POST Application AMARE herbicidal damage (five point scale): post-emergence, 1000 g/h, evaluated after 13 days
Protocol: as §1

[11] = tested on: Ipomoea hederacea (IPOHE); assay: Post-emergence herbicidal glasshouse test on Ipomoea hederacea; details: for POST Application IPOHE herbicidal damage (five point scale): post-emergence, 1000 g/h, evaluated after 13 days
Protocol: as §1

[12] = tested on: Ipomoea hederacea (IPOHE); assay: Pre-emergence herbicidal glasshouse test on Ipomoea hederacea; details: pre-emergence; 1000 g/h; evaluated after 13 days
Protocol: as §1

SMILES | PRE Application ALOMY herbicidal damage (five point scale) [1] | PRE Application SETFA herbicidal damage (five point scale) (Setaria faberi (SETFA) [2]) | PRE Application ECHCG herbicidal damage (five point scale) [3] | PRE Application SOLNI herbicidal damage (five point scale) (Solanum nigrum (SOLNI) [4]) | PRE Application AMARE herbicidal damage (five point scale) [5] | POST Application ALOMY herbicidal damage (five point scale) [6] | POST Application SETFA herbicidal damage (five point scale) (Setaria faberi (SETFA) [7]) | POST Application ECHCG herbicidal damage (five point scale) [8] | POST Application SOLNI herbicidal damage (five point scale) (Solanum nigrum (SOLNI) [9]) | POST Application AMARE herbicidal damage (five point scale) [10] | POST Application IPOHE herbicidal damage (five point scale) [11] | PRE Application IPOHE herbicidal damage (five point scale) [12] | other results
COc1ccc(-c2cnn(C)c(=O)c2O)c(C(F)(F)F)c1 [Compound 1.115] | 1 (1=0-19% damage) | 1 (1=0-19% damage) | 2 (2=20-39% damage) | 4 (4=60-79% damage) | 4 (4=60-79% damage) | 1 (1=0-19% damage) | 1 (1=0-19% damage) | 1 (1=0-19% damage) | 5 (5=80-100% damage) | 2 (2=20-39% damage) | 4 (4=60-79% damage) | – | –
C=Cc1ccc(-c2cnn(C)c(=O)c2O)c(S(C)(=O)=O)c1 [Compound 1.139] | 5 (5=80-100% damage) | 1 (1=0-19% damage) | 5 (5=80-100% damage) | – | 5 (5=80-100% damage) | 5 (5=80-100% damage) | 5 (5=80-100% damage) | 5 (5=80-100% damage) | 5 (5=80-100% damage) | 5 (5=80-100% damage) | 5 (5=80-100% damage) | 4 (4=60-79% damage) | –
CCCn1ncc(-c2ccc(C(F)(F)F)cc2Cl)c(O)c1=O [Compound 1.126] | 1 (1=0-19% damage) | 1 (1=0-19% damage) | 1 (1=0-19% damage) | 1 (1=0-19% damage) | – | 1 (1=0-19% damage) | 2 (2=20-39% damage) | 2 (2=20-39% damage) | 4 (4=60-79% damage) | 5 (5=80-100% damage) | 3 (3=40-59% damage) | 1 (1=0-19% damage) | –
CCCCn1c(C2CC2)ncc(-c2cnn(C)c(=O)c2O)c1=O [Compound 10.005] | – | – | – | – | – | – | – | – | – | – | – | – | PRE Application ALOMY ([1]; pre-emergence application, Alopecurus myosuroides, damage score 1-5): 1 (1=0-19% damage); PRE Application SETFA (Setaria faberi (SETFA) [2]; pre-emergence application, Setaria faberi, damage score 1-5): 1 (1=0-19% damage); PRE Application SOLNI (Solanum nigrum (SOLNI) [4]; pre-emergence application, Solanum nigrum, damage score 1-5): 5 (5=80-100% damage); PRE Application AMARE ([5]; pre-emergence application, Amaranthus retoflexus, damage score 1-5): 5 (5=80-100% damage); POST Application ALOMY ([6]; post-emergence application, Alopecurus myosuroides, damage score 1-5): 2 (2=20-39% damage); POST Application SETFA (Setaria faberi (SETFA) [7]; post-emergence application, Setaria faberi, damage score 1-5): 5 (5=80-100% damage); POST Application ECHCG ([8]; post-emergence application, Echinochloa crus-galli, damage score 1-5): 5 (5=80-100% damage); POST Application SOLNI (Solanum nigrum (SOLNI) [9]; post-emergence application, Solanum nigrum, damage score 1-5): 5 (5=80-100% damage); POST Application AMARE ([10]; post-emergence application, Amaranthus retoflexus, damage score 1-5): 5 (5=80-100% damage); POST Application IPOHE ([11]; post-emergence application, Ipomoea hederacea, damage score 1-5): 4 (4=60-79% damage)
Cc1cccn(-c2cnn(C)c(=O)c2O)c1=O [Compound 1.062] | 1 (1=0-19% damage) | 1 (1=0-19% damage) | 1 (1=0-19% damage) | 1 (1=0-19% damage) | – | 2 (2=20-39% damage) | 4 (4=60-79% damage) | 5 (5=80-100% damage) | 4 (4=60-79% damage) | 5 (5=80-100% damage) | 5 (5=80-100% damage) | 1 (1=0-19% damage) | –
Cc1ccn(-c2cnn(C)c(=O)c2O)c(=O)c1 [Compound 1.065] | 1 (1=0-19% damage) | 2 (2=20-39% damage) | 3 (3=40-59% damage) | 1 (1=0-19% damage) | 5 (5=80-100% damage) | 1 (1=0-19% damage) | 5 (5=80-100% damage) | 5 (5=80-100% damage) | 4 (4=60-79% damage) | 5 (5=80-100% damage) | 4 (4=60-79% damage) | – | –
Cn1ncc(-c2ccccc2[N+](=O)[O-])c(O)c1=O [Compound 1.111] | 1 (1=0-19% damage) | 1 (1=0-19% damage) | 1 (1=0-19% damage) | – | – | 1 (1=0-19% damage) | 1 (1=0-19% damage) | 1 (1=0-19% damage) | 3 (3=40-59% damage) | 2 (2=20-39% damage) | 1 (1=0-19% damage) | 2 (2=20-39% damage) | –
CC(C)n1ncc(-c2c(Cl)ccc(Cl)c2Cl)c(O)c1=O [Compound 1.015] | 1 (1=0-19% damage) | 1 (1=0-19% damage) | 1 (1=0-19% damage) | – | – | 1 (1=0-19% damage) | 1 (1=0-19% damage) | 2 (2=20-39% damage) | 4 (4=60-79% damage) | 2 (2=20-39% damage) | 4 (4=60-79% damage) | 1 (1=0-19% damage) | –
CCn1ncc(-c2ccc(S(C)(=O)=O)c(C3=NOCC3)c2Cl)c(O)c1=O [Compound 1.009] | 5 (5=80-100% damage) | 5 (5=80-100% damage) | 5 (5=80-100% damage) | 5 (5=80-100% damage) | 5 (5=80-100% damage) | 5 (5=80-100% damage) | 5 (5=80-100% damage) | 5 (5=80-100% damage) | 5 (5=80-100% damage) | 5 (5=80-100% damage) | 5 (5=80-100% damage) | – | –
